Values of other authors, collected in US20080097335A1, “OCULAR IMPLANT DELIVERY ASSEMBLIES” (ALLERGAN, INC., priority 2006, published 2008).

Details: efficacy in vivo; 25 mg dose of hydrocortisone equivalent to 1 mg dose of dexamethasone

For C[C@]12CCC(=O)C=C1CC[C@@H]1[C@@H]2[C@@H](O)C[C@@]2(C)[C@H]1CC[C@]2(O)C(=O)CO [hydrocortisone], the “potency relative to dexamethasone” value is given as “approximately twenty-five fold less potent than dexamethasone”.
